≈ marks a conversion by molar mass, not a printed value.
conditions: buffer; pH 7.4; 200.0 µM

SMILES | solubility kinetic [µg/mL]
O=C(OCC(=O)N1CCOCC1)c1ccc2ccccc2c1O | 28.2 (≈ 89.4 µM)
O=NN1CCN(c2ccncc2S(=O)(=O)N2CCCCC2)CC1 | > 50.9
CC(=O)c1nc2ccccc2n1CCc1ccccc1 | 27.5 (≈ 104 µM)
CN(C(=O)COC(=O)c1cnc(Cl)c(Cl)c1)C1CCCCC1 | 41.7 (≈ 121 µM)
O=C(O)CC1(CC(=O)Nc2cccc(C(F)(F)F)c2)CCCC1 | > 49.4
NS(=O)(=O)c1ccc(CNC(=O)c2ccc3c(c2)OCO3)cc1 | > 50.2
Cc1oc2ccccc2c1CC(=O)NCCCN(C)C | > 41.2
CCCCNC(=O)COC(=O)c1ccc(N(C)C)cc1 | > 41.8
C=CCn1c(NCc2ccccc2O)nc2ccccc21 | 2.4 (≈ 8.59 µM)
CCc1sc(C(=O)Nc2ccc3nc(C)sc3c2)cc1C | 1.6 (≈ 5.06 µM)
CN(C)CCCN1C(=O)C2CCc3[nH]c4ccccc4c3C2C1=O (stereo not given) | > 48.8
Cc1ccc(OCCSc2nc3ncnc(N)c3[nH]2)cc1 | 3.8 (≈ 12.6 µM)
CCc1nc(SCC(=O)O)c2c3c(sc2n1)COC(C)(C)C3 | > 50.8
COc1cccc(S(=O)(=O)Nc2noc3ccccc23)c1 | 37.6 (≈ 124 µM)
O=C(Nc1ccccc1C(=O)N1CCCCC1)c1ccco1 | > 44.8
N#CNC(=Nc1ccc(Cl)cc1)Oc1ccccc1 | 1.9 (≈ 6.99 µM)
O=C(Nc1ccc2c(c1)CCC2)c1cccc(OC(F)F)c1 | 10.2 (≈ 33.6 µM)
O=C1ON=C(c2ccc([N+](=O)[O-])cc2)/C1=C/c1ccccc1O | > 46.5
CCC(=O)NCc1c(C)c(C)n(Cc2ccccc2)c1-n1cccc1 | 4.6 (≈ 13.7 µM)
Nc1nc(Cl)nc2ncn(Cc3ccccc3)c12 | > 39
CC1Oc2ccccc2N(CC(=O)Nc2ccc(F)cc2)C1=O (stereo not given) | 12.6 (≈ 40.1 µM)
CCCN1CNC(=S)N(c2ccccc2C)C1 | > 37.4
CNC(=O)c1ccc(NC(=O)CC23CC4CC(CC(C4)C2)C3)cc1 | 13.8 (≈ 42.3 µM)
COc1ccccc1NC(=O)/C=C\c1ccco1 | 25.8 (≈ 106 µM)

SMILES | solubility kinetic [µg/mL]
O=C(NCc1cccnc1)Nc1ccc([N+](=O)[O-])cc1 | > 40.8
CN(Cc1ccccc1)C(=O)COc1cccnc1[N+](=O)[O-] | > 45.2
c1ccc(C2CN3CCC2CC3)cc1 (stereo not given) | > 28.1
CCc1ccc(S(=O)(=O)NCc2cccs2)cc1 | 35.6 (≈ 127 µM)
Cc1ccc(S(=O)(=O)N2CCN(c3ccccc3)CC2)cc1 | < 0.3
CSc1cc(C)c(OCC(=O)Nc2ccc(NC(C)=O)cc2)c(C)c1 | 4.4 (≈ 12.3 µM)
O=C(Nc1nonc1-c1ccc(Cl)cc1)c1ccco1 | > 43.5
CN(C)S(=O)(=O)c1cccc(C(=O)Nc2ccc(C(=O)Nc3cccc(S(N)(=O)=O)c3)cc2)c1 | 9 (≈ 17.9 µM)
CN1CCN(c2ccccc2NC(=O)c2ccc(F)cc2)CC1 | > 47
O=C(Nc1nccs1)C1CC(=O)N(c2ccccc2)C1 (stereo not given) | > 43.1
O=C(O)C1C2CCC(O2)C1C(=O)Nc1cccc(Br)c1 (stereo not given) | 50.7 (≈ 149 µM)
O=C(NC1CCCCCCC1)c1cc(-c2ccccn2)nc2ccccc12 | < 0.3
CC(=O)Nc1ccc(C(=O)OCC(=O)N2CCCC2)cc1 | > 43.5
c1nc2ccc(Cc3ccc4nc[nH]c4c3)cc2[nH]1 | 34.3 (≈ 138 µM)
O=C(Nc1ccc(Cl)cc1)c1ccc2ncsc2c1 | 3.1 (≈ 10.7 µM)
O=C(O)CNC(=S)N(Cc1ccc(F)cc1)C1CCCCC1 | > 48.7
COc1ccc(C(=O)n2cnc3ccccc32)cc1 | > 37.8
COC(=O)C(Cc1ccccc1)NC(=O)CCc1c[nH]c2ccccc12 (stereo not given) | > 52.6
Cc1cccc(CSc2[nH]c(=O)ncc2C)c1 | 15.7 (≈ 63.7 µM)
Cc1cc(Cl)nc(Cl)c1C(=O)NCCc1ccccc1 | > 46.4
Cc1cc(C)c2c(N)c(C(=O)N3CCc4ccccc4C3)sc2n1 | 5.5 (≈ 16.3 µM)
Cc1cc(NC(=O)CSc2nccn2-c2ccc([N+](=O)[O-])cc2)no1 | 33.8 (≈ 94.1 µM)
Cc1cccc(COc2ccc(/C=C3/C(=O)N(C)C(=S)N3C)cc2)c1 | 5.4 (≈ 15.3 µM)
CN(C)CCCNC(=S)Nc1ccc(Br)cc1 | > 47.4

SMILES | solubility kinetic [µg/mL]
O=C(NCC(=O)N1CC=C(c2ccccc2)CC1)c1ccco1 | > 46.6
N#C/C(=C\c1ccncc1)c1ccc(NC(N)=O)cc1 | 13.8 (≈ 52.2 µM)
CN(C(=O)c1ccco1)c1ccccc1C(=O)O | > 36.8
Cc1nc(Cc2ccc(OC(C)C)cc2)[nH]c(=O)c1CC(=O)O | > 47.5
N#Cc1ccc(C(=O)Nc2ccc3ccccc3c2)cc1 | 0.4 (≈ 1.47 µM)
Cc1c(NCc2ccncc2)cccc1C(=O)O | > 36.3
Cc1ccccc1NC(=S)N(Cc1ccccc1)Cc1cccnc1 | 43.9 (≈ 126 µM)
COC(=O)c1c(NC(=O)c2ccoc2C)sc(C)c1C | < 0.6
CN(C)Cc1c(O)ccc2ccccc12 | 29.8 (≈ 148 µM)
CC1CCN(C(=O)c2ccc(N3C(=O)c4ccccc4C3=O)cc2)CC1 | 33.5 (≈ 96.2 µM)
Cc1ccc(C(=O)OCC(=O)Nc2cccc(Cl)c2C)c(O)c1 | < 0.7
Cc1cccc(C(=O)OCC(=O)N(C)c2ccccc2)c1C | > 44.6
COc1ccc(S(=O)(=O)N2CCSCC2)cc1C(N)=O | 25 (≈ 79 µM)
COc1ccccc1NC(=O)c1ccc2c(c1)CCN2S(C)(=O)=O | > 52
CC(C)(C)C(=O)Nc1sc2c(c1C(=O)Nc1ccccn1)CCCC2 | < 0.3
N/C(=N\O)c1cccc(CS(=O)(=O)c2ccccn2)c1 | 37 (≈ 127 µM)
Cc1noc(C)c1C(=O)Nc1cc(Cl)ccc1N1CCOCC1 | 13.5 (≈ 40.2 µM)
Nc1nonc1OCCOCCOCCOc1nonc1N | 45.7 (≈ 144 µM)
COc1ccc(OCC(=O)NCCCn2ccnc2)cc1.Cl | > 48.9
N#Cc1ccc(S(=O)(=O)Nc2ccccc2N2CCOCC2)cc1 | > 51.5
O=S1(=O)NC(=NCCOCCO)c2ccccc21 | > 40.5
O=C1OCC2=C1C(c1ccccc1)CC(=O)N2c1ccc(F)cc1 (stereo not given) | > 48.5
O=C(NCCCCc1ccccc1)c1ccccc1 | 14.4 (≈ 56.8 µM)
CC(C)CC(=O)N/N=C/c1c(N)n(C)c(=O)n(C)c1=O | > 42.2

SMILES | solubility kinetic [µg/mL]
O=Cc1cnc(N2CCN(Cc3ccccc3)CC2)s1 | > 43.1
O=C(c1cc(COc2ccc(F)cc2F)on1)N1CCOCC1 | > 48.6
Cc1ccc(NS(=O)(=O)N2CCOCC2)cc1Cl | > 43.6
COc1ccc(C(=O)O/N=C(\C)c2cnccn2)cc1 | 9 (≈ 33.2 µM)
Cc1ccccc1C(=O)NC1CCN(C(=O)NC2CCCCC2)CC1 | 6.5 (≈ 18.9 µM)
O=C(NC(=O)c1ccccc1F)OCc1ccc(Cl)cc1Cl | < 0.7
CN(Cc1nc2ccccc2n1C)c1ccccc1 | > 37.7
NC(=O)c1c(NC(=O)c2ccccc2)sc2c1CCCC2 | 0.8 (≈ 2.66 µM)
Cc1cccc(C)c1N1C(=O)CN(Cc2ccccc2)C1=S | 27.8 (≈ 89.6 µM)
COc1cc(OC)c(C(=O)OCC(=O)NC2CCCCCCC2)cc1OC | > 56.9
O=C(NCc1ccccc1F)C(c1ccccc1)c1ccccc1 | 0.9 (≈ 2.82 µM)
CCOC(=O)Cc1csc(NC(=O)Nc2ccc(C)cc2)n1 | 3.8 (≈ 11.9 µM)
Cc1ccc(NC(=O)C2CC2)cc1S(=O)(=O)N1CCOCC1 | > 48.7
O=C1c2ccccc2NC(c2ccc(F)cc2)N1Cc1ccccc1 (stereo not given) | 1.4 (≈ 4.21 µM)
Cc1ccc(NC(=O)CNC(=O)c2ccc(C(C)(C)C)cc2)cc1S(=O)(=O)N1CCOCC1 | 16.1 (≈ 34 µM)
Cc1ccc(NC(=O)COC(=O)C2(CC(=O)NC(C)(C)C)CCCC2)cc1C | 2.5 (≈ 6.43 µM)
COc1ccccc1-n1cc(-c2ccccc2)c2c(=S)nc[nH]c21 | 10.6 (≈ 31.8 µM)
C=CCNC(=O)c1ccc([N+](=O)[O-])c(Cl)c1 | > 36.1
COc1c(Cl)ccc(Cl)c1C(=O)NC(=S)N1CCOCC1 | > 52.4
N#Cc1ccsc1NC(=O)CN1C(=O)NC2(CCCCC2)C1=O | 47.3 (≈ 142 µM)
Cc1ccc(NC(=O)COC(=O)c2cccnc2Cl)cc1S(=O)(=O)N1CCOCC1 | 66 (≈ 145 µM)
Cc1ccc(C(=O)NCCCNC(=O)COc2ccc(Cl)cc2)cn1 | 49.7 (≈ 137 µM)
O=c1c2ccccc2nc(/C=C/c2cccnc2)n1CCc1ccccc1 | 22.1 (≈ 62.5 µM)
Cc1ccc(C(=O)NCC(=O)OCC(=O)NC2CCCCCCC2)cc1 | 53.2 (≈ 148 µM)

SMILES | solubility kinetic [µg/mL]
Nc1cc(N)nc(SCC(=O)NCC(=O)Nc2ccc(F)c(F)c2F)n1 | 51.3 (≈ 133 µM)
Clc1ncn(CCOc2ccccc2)c1Cl | 38.2 (≈ 149 µM)
CCS(=O)(=O)NCCc1csc(-c2ccc(OC)c(OC)c2)n1 | 53.2 (≈ 149 µM)
O=c1[nH]c2ccccc2nc1-c1ccccc1 | 3.9 (≈ 17.5 µM)
Cc1ccc(C)c(C(=O)COc2ncnc3ccccc23)c1 | 9.2 (≈ 31.5 µM)
CC1(c2ccccc2)CC(C)(C)N(C(N)=O)c2ccccc21 (stereo not given) | 40.9 (≈ 139 µM)
Cc1ccc(C(=O)Nc2cccc(NC(=O)c3cccs3)c2)c(C)c1 | 0.6 (≈ 1.71 µM)
COc1ccc(CCNC(=O)CCC(=O)NC2CCCCC2)cc1OC | > 54.4
Cc1cc(C(=O)N2CCCC(Nc3ccc(F)cc3)C2)c(C)o1 (stereo not given) | > 47.5
O=C(COC(=O)COc1ccc2c(c1)CCC2)Nc1ccccc1C(F)(F)F | 5.3 (≈ 13.5 µM)
O=C(NCC(c1ccco1)N1CCCCC1)c1cnc(Cl)c(Cl)c1 (stereo not given) | > 55.2
O=C(NC1CCCCNC1=O)c1ccco1 (stereo not given) | > 33.3
Cc1ccc(C(=O)OCC(=O)N(Cc2ccccc2)C(C)C)cc1C | 16.8 (≈ 49.5 µM)
Cc1cccc(C(=O)OC(C)CN2CCN(C)CC2)c1.Cl (stereo not given) | > 46.9
CCOC(=O)CN1C(=O)c2ccccc2Sc2ncccc21 | > 47.2
COc1ccccc1N1CCN(c2ccc([N+](=O)[O-])cn2)CC1 | 16.2 (≈ 51.5 µM)
Cl.c1cncc(CNCCc2c[nH]c3ccccc23)c1 | 38.5
O=C(Nc1ccc2ccccc2n1)c1ccccc1Br | 4.6 (≈ 14.1 µM)
Cn1cnnc1SCC(=O)Nc1ccc(OC(F)F)cc1 | > 47.1
O=C(Cc1ccccc1Cl)Nc1nc2ccccc2[nH]1 | 2.6 (≈ 9.1 µM)
O=C1c2ccccc2C(=O)N1c1cc([N+](=O)[O-])ccn1 | 29.2 (≈ 108 µM)
CC(C)CN1CCN(Cc2c[nH]c3ccccc23)CC1CCO (stereo not given) | 33.3 (≈ 106 µM)
CCN(CC)C(=O)c1c(C)[nH]c(=S)c(C#N)c1-c1ccco1 | > 47.3
O=C(Nc1ccccc1)/C(=C\c1ccccc1)NC(=O)c1ccco1 | 0.7 (≈ 2.11 µM)
